Measurements as given in PubChem BioAssay AID743284 (The Scripps Research Institute Molecular Screening Center, 2014).
pIC50: −log10 of the molar value. Active and inactive are the calls of the source.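 The calls were made as follows: active = compounds whose fitted concentration for half-maximal reporter inhibition is 10 µM or lower; inactive = the rest.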

Biological target: COUP transcription factor 2 (Homo sapiens) (UniProt P24468)
Experiment: COUP-TFII reporter suppression IC50 – cell-based, luciferase reporter, HEK293, powder samples, round 000, late-stage follow-up (AID 743284)
Conditions: HEK293 NGFI-A luciferase reporter, luminescence

Sequence of COUP transcription factor 2 (Homo sapiens) (P24468 whole entry, looked up): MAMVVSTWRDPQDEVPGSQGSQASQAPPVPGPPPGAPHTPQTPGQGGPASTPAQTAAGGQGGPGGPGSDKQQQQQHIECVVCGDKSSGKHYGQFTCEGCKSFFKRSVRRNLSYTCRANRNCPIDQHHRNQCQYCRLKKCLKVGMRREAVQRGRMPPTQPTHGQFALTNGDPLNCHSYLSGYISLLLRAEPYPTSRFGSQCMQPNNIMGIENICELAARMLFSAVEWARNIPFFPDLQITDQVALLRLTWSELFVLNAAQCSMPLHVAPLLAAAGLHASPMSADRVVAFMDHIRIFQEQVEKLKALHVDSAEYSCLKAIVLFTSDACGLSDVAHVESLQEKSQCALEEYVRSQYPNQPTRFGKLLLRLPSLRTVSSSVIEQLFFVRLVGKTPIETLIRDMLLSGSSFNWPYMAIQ

| Compound | pIC50 | IC50 |
| --- | --- | --- |
| Cn1nccc1C(=O)NC1CCCc2c1cnn2-c1ccc(C(C)(C)C)cc1 (stereo not drawn) | 5.86 |  |
| CC(Nc1ncnc2ccccc12)c1ccccc1 (stereo not drawn) | 5.30 |  |
| CC1Cc2cc(-c3csc(NC(=O)Cc4cccs4)n3)ccc2N1S(C)(=O)=O (stereo not drawn) | 5.64 |  |
| COc1ccc(CCNc2ncnc3sccc23)cc1OC | 5.75 |  |
| COc1ccc(CCNc2ncnc3sc(C)cc23)cc1OC | 5.83 |  |
| Cc1cc(-n2nc3ccccc3n2)c2oc(SCC(=O)NC(C)(C)C)nc2c1 |  | inactive |
| Cc1cc(C)c(S(=O)(=O)NCc2ccncc2)c(C)c1 | 5.27 |  |
| COc1ccc(OC)c(CCNC(=O)Cn2nc(C)c3c(C)n(-c4ccc(C)cc4)nc3c2=O)c1 | 5.50 |  |
| Cc1nn(C)c(C)c1CN(C)S(=O)(=O)c1ccc2ccccc2c1 | 5.49 |  |
| O=C(Nc1ccncc1)c1ccc(Cl)c(S(=O)(=O)N2CCc3ccccc32)c1 | 5.41 |  |
| COc1ccc(CN(C)c2ccc(S(=O)(=O)N3CCN(C)CC3)cc2[N+](=O)[O-])cc1OC | 5.56 |  |
| Cc1ccc(OCCN2CCN(c3ncnc4sc(C)c(C)c34)CC2)cc1 | 5.46 |  |
| CCOC(=O)N1CCN(C(=O)CSCC(=O)Nc2nc(-c3ccc(-c4ccccc4)cc3)cs2)CC1 | 5.54 |  |
| Cc1sc2ncnc(NCC3COc4ccccc4O3)c2c1C (stereo not drawn) | 5.49 |  |
| CN(CC1CCCO1)S(=O)(=O)c1ccc(C(=O)Nc2nc3cc4c(cc3s2)OCO4)cc1 (stereo not drawn) | 5.70 |  |
| Cc1oc(-c2ccc(Cl)cc2)nc1CS(=O)CC(=O)NCCCN1CCN(Cc2ccccc2)CC1 (stereo not drawn) | 5.20 |  |
| Cc1cc(-n2c(C)cc(C(=O)CSc3ncnc4ccccc34)c2C)no1 | 5.16 |  |
| CCC1CCCCN1C(=O)c1cc(COc2ccc3ncccc3c2)on1 (stereo not drawn) | 5.48 |  |
| CC(=O)Nc1ccccc1OCC(=O)c1cc(C)n(Cc2cccs2)c1C | 6.23 |  |
| COc1ccc(NS(=O)(=O)c2ccc(-c3coc(C)n3)cc2)cc1OC | 5.24 |  |
| CCOC(=O)C1CCCN(S(=O)(=O)c2ccc(S(=O)(=O)N(CC)CC)cc2)C1 (stereo not drawn) | 5.52 |  |
| Cc1sc2ncnc(NCCc3ccc(S(N)(=O)=O)cc3)c2c1C | 5.24 |  |
| Cc1ccc(S(=O)(=O)CC2CSc3nc4ccccc4n32)cc1 (stereo not drawn) | 5.38 |  |
| COc1ccc(NS(=O)(=O)c2cccc(NC(=O)c3ccc(Cl)nc3)c2)cc1 | 5.46 |  |
| CCOc1cc(S(=O)(=O)NCc2ccncc2)ccc1Cl | 5.69 |  |
| CCN(CC)S(=O)(=O)c1cccc(NC(=O)CNc2cccc(S(=O)(=O)N3CCCC3)c2)c1 | 5.40 |  |
| O=S(=O)(NCC1CCCO1)c1ccc(-c2ccc(S(=O)(=O)NCC3CCCO3)cc2)cc1 (stereo not drawn) | 5.73 |  |
| COc1ccc(C2=Nn3c([n+](C)c4ccccc43)SC2)cc1 | 5.32 |  |
